Reference: article PMC5218480 (PLoS ONE, 2017)

Tested on: MV-4-11 cells
Assay: Gene expression microarray analysis (Affymetrix PrimeView) and GSEA
Type: cell-based, human
Parameters: RFU PODN (11730768_x_at) / Fold change /veh PODN (11730768_x_at) / RFU LINC00158 (11744669_a_at) / Fold change /veh LINC00158 (11744669_a_at) / RFU DUSP10 (11751237_a_at) / Fold change /veh DUSP10 (11751237_a_at) / RFU ID3 (11757404_x_at) / Fold change /veh ID3 (11757404_x_at) / RFU PLEKHG5 (11737974_s_at) / Fold change /veh PLEKHG5 (11737974_s_at) / RFU LRRC4B (11730491_at) / Fold change /veh LRRC4B (11730491_at) / RFU GIMAP4 (11747438_a_at) / Fold change /veh GIMAP4 (11747438_a_at) / RFU KRT8 (11758183_x_at) / Fold change /veh KRT8 (11758183_x_at) / RFU CNN1 (11734310_a_at) / Fold change /veh CNN1 (11734310_a_at) / RFU VPS37D (11726825_at) / Fold change /veh VPS37D (11726825_at) / RFU C10orf10 (11716522_x_at) / Fold change /veh C10orf10 (11716522_x_at) / RFU KIR2DL2 /// KIR2DL4 /// KIR2DL5A /// KIR2DL5B /// KIR2DS1 /// KIR2DS2 /// KIR2DS3 /// KIR2DS4 /// KIR3DL3 /// KIR3DL3 /// KIR3DS1 (11738374_at) / Fold change /veh KIR2DL2 /// KIR2DL4 /// KIR2DL5A /// KIR2DL5B /// KIR2DS1 /// KIR2DS2 /// KIR2DS3 /// KIR2DS4 /// KIR3DL3 /// KIR3DL3 /// KIR3DS1 (11738374_at) / RFU C1QL1 (11718748_at) / Fold change /veh C1QL1 (11718748_at) / RFU TMPRSS4 (11747572_a_at) / Fold change /veh TMPRSS4 (11747572_a_at) / RFU HAMP (11756126_x_at) / Fold change /veh HAMP (11756126_x_at) / RFU RNFT2 (11725882_a_at) / Fold change /veh RNFT2 (11725882_a_at) / RFU NR4A2 (11747474_a_at) / Fold change /veh NR4A2 (11747474_a_at) / RFU ABCC12 (11746883_a_at) / Fold change /veh ABCC12 (11746883_a_at) / RFU TMEM136 (11760407_x_at) / Fold change /veh TMEM136 (11760407_x_at) / RFU CLDN22 /// WWC2 (11732394_at) / Fold change /veh CLDN22 /// WWC2 (11732394_at) / RFU HLA-DPB1 (11760878_x_at) / Fold change /veh HLA-DPB1 (11760878_x_at) / RFU SPINT1 (11716480_a_at) / Fold change /veh SPINT1 (11716480_a_at) / RFU GAP43 (11754022_s_at) / Fold change /veh GAP43 (11754022_s_at) / RFU A4GNT (11735810_at) / Fold change /veh A4GNT (11735810_at) / RFU PRB3 (11715151_x_at) / Fold change /veh PRB3 (11715151_x_at) / RFU TUBB4B (11761932_at) / Fold change /veh TUBB4B (11761932_at) / RFU CAPN14 (11732068_a_at) / Fold change /veh CAPN14 (11732068_a_at) / RFU TMCC2 (11721928_a_at) / Fold change /veh TMCC2 (11721928_a_at) / RFU IRGQ (11745062_a_at) / Fold change /veh IRGQ (11745062_a_at) / RFU FAM174B (11720279_a_at) / Fold change /veh FAM174B (11720279_a_at) / RFU TMPRSS4 (11748680_a_at) / Fold change /veh TMPRSS4 (11748680_a_at) / RFU FAM212B (11763350_a_at) / Fold change /veh FAM212B (11763350_a_at) / RFU PLEKHG5 (11743358_a_at) / Fold change /veh PLEKHG5 (11743358_a_at) / RFU ZSCAN30 (11745921_a_at) / Fold change /veh ZSCAN30 (11745921_a_at) / RFU CMKLR1 (11741424_a_at) / Fold change /veh CMKLR1 (11741424_a_at) / RFU LOC101060620 /// MAPK8IP1 (11723275_at) / Fold change /veh LOC101060620 /// MAPK8IP1 (11723275_at) / RFU SPTSSB (11747773_x_at) / Fold change /veh SPTSSB (11747773_x_at) / RFU PRSS12 (11739890_at) / Fold change /veh PRSS12 (11739890_at) / RFU BIN1 (11741810_x_at) / Fold change /veh BIN1 (11741810_x_at) / RFU WNT11 (11732464_a_at) / Fold change /veh WNT11 (11732464_a_at) / RFU C10orf10 (11716521_a_at) / Fold change /veh C10orf10 (11716521_a_at) / RFU C5orf56 (11738089_at) / Fold change /veh C5orf56 (11738089_at) / RFU CYB561 (11721691_x_at) / Fold change /veh CYB561 (11721691_x_at) / RFU ANKRD19P (11752326_a_at) / Fold change /veh ANKRD19P (11752326_a_at) / RFU OR2T12 /// OR2T33 /// OR2T8 (11738714_s_at) / Fold change /veh OR2T12 /// OR2T33 /// OR2T8 (11738714_s_at) / RFU VCAN (11748164_a_at) / Fold change /veh VCAN (11748164_a_at) / RFU JSRP1 (11732532_at) / Fold change /veh JSRP1 (11732532_at) / RFU KRTAP10-11 (11738290_x_at) / Fold change /veh KRTAP10-11 (11738290_x_at) / RFU MYO3A (11730013_a_at) / Fold change /veh MYO3A (11730013_a_at) / RFU EBF3 (11725865_a_at) / Fold change /veh EBF3 (11725865_a_at) / RFU CAMK2N1 (11719241_x_at) / Fold change /veh CAMK2N1 (11719241_x_at) / RFU C5orf56 (11738088_a_at) / Fold change /veh C5orf56 (11738088_a_at) / RFU OLFML3 (11715873_a_at) / Fold change /veh OLFML3 (11715873_a_at) / RFU LOC100653217 /// NTM (11731650_a_at) / Fold change /veh LOC100653217 /// NTM (11731650_a_at) / RFU MAPK11 (11762145_a_at) / Fold change /veh MAPK11 (11762145_a_at) / RFU FIZ1 (11724087_x_at) / Fold change /veh FIZ1 (11724087_x_at) / RFU OASL (11726364_x_at) / Fold change /veh OASL (11726364_x_at) / RFU SOX15 (11748057_x_at) / Fold change /veh SOX15 (11748057_x_at) / RFU CD79A (11719716_a_at) / Fold change /veh CD79A (11719716_a_at) / RFU HIST1H1D (11736915_at) / Fold change /veh HIST1H1D (11736915_at) / RFU CASKIN2 (11723855_a_at) / Fold change /veh CASKIN2 (11723855_a_at) / RFU LOC730098 (11760151_x_at) / Fold change /veh LOC730098 (11760151_x_at) / RFU OR4N2 (11742367_at) / Fold change /veh OR4N2 (11742367_at) / RFU PRRT2 (11749266_a_at) / Fold change /veh PRRT2 (11749266_a_at) / RFU SNX32 (11753110_a_at) / Fold change /veh SNX32 (11753110_a_at) / RFU CDHR5 (11726645_a_at) / Fold change /veh CDHR5 (11726645_a_at) / RFU RCAN1 (11760418_a_at) / Fold change /veh RCAN1 (11760418_a_at) / RFU FAM167A (11723789_a_at) / Fold change /veh FAM167A (11723789_a_at) / RFU FAM26E (11764081_at) / Fold change /veh FAM26E (11764081_at) / RFU ISYNA1 (11749810_s_at) / Fold change /veh ISYNA1 (11749810_s_at) / RFU ACY1 (11761880_at) / Fold change /veh ACY1 (11761880_at) / RFU 11764098_at / Fold change /veh 11764098_at / RFU SAMD14 (11745864_x_at) / Fold change /veh SAMD14 (11745864_x_at) / RFU NPB (11741838_a_at) / Fold change /veh NPB (11741838_a_at) / RFU TMPRSS6 (11731388_a_at) / Fold change /veh TMPRSS6 (11731388_a_at) / RFU KRTAP10-2 (11738614_at) / Fold change /veh KRTAP10-2 (11738614_at) / RFU ARHGAP8 /// PRR5-ARHGAP8 (11727945_x_at) / Fold change /veh ARHGAP8 /// PRR5-ARHGAP8 (11727945_x_at) / RFU KRTAP5-7 /// NADSYN1 (11734609_at) / Fold change /veh KRTAP5-7 /// NADSYN1 (11734609_at) / RFU RASL12 (11751679_a_at) / Fold change /veh RASL12 (11751679_a_at) / RFU CDKN2B (11736163_a_at) / Fold change /veh CDKN2B (11736163_a_at) / RFU PRF1 (11729649_at) / Fold change /veh PRF1 (11729649_at) / RFU, ZNF638 /// ZNF638-IT1 / Fold change vs veh, ZNF638 /// ZNF638-IT1 / RFU, PANK3 / Fold change vs veh, PANK3 / RFU, SH3YL1 / Fold change vs veh, SH3YL1 / RFU, ZEB2 / Fold change vs veh, ZEB2 / RFU, NRIP1 / Fold change vs veh, NRIP1 / RFU, PTTG1IP / Fold change vs veh, PTTG1IP / RFU, CAPN2 / Fold change vs veh, CAPN2 / RFU, MED14 / Fold change vs veh, MED14 / RFU, SNORA58 / Fold change vs veh, SNORA58 / RFU, C1orf63 / Fold change vs veh, C1orf63 / RFU, LRRFIP1 / Fold change vs veh, LRRFIP1 / RFU, NDUFAF7 / Fold change vs veh, NDUFAF7 / RFU, SLC12A2 / Fold change vs veh, SLC12A2 / RFU, IBTK / Fold change vs veh, IBTK / RFU, ESF1 / Fold change vs veh, ESF1 / Fold change vs veh, TMEM50B / RFU, TAOK1 / Fold change vs veh, TAOK1 / RFU, ACBD3 / Fold change vs veh, ACBD3 / RFU, TMA16 / Fold change vs veh, TMA16 / RFU, RWDD3 / Fold change vs veh, RWDD3 / RFU, BCAT1 / Fold change vs veh, BCAT1 / RFU, EDEM3 / Fold change vs veh, EDEM3 / RFU, TMEM33 / Fold change vs veh, TMEM33 / RFU, WDR75 / Fold change vs veh, WDR75 / RFU, AHCTF1 / Fold change vs veh, AHCTF1 / RFU, TFRC / Fold change vs veh, TFRC / RFU, ZDHHC17 / Fold change vs veh, ZDHHC17 / RFU, NOM1 / Fold change vs veh, NOM1 / RFU, ARL8B / Fold change vs veh, ARL8B / RFU, ZBTB11 / Fold change vs veh, ZBTB11 / RFU, TAMM41 / Fold change vs veh, TAMM41 / RFU, KIAA1704 /// LOC100996395 / Fold change vs veh, KIAA1704 /// LOC100996395 / RFU, ING1 / Fold change vs veh, ING1 / RFU, TRMT61B / Fold change vs veh, TRMT61B / RFU, FUBP3 / Fold change vs veh, FUBP3 / RFU, TP53 / Fold change vs veh, TP53 / RFU, TNKS2 / Fold change vs veh, TNKS2 / RFU, ZFP14 / Fold change vs veh, ZFP14 / RFU, ACTR2 / Fold change vs veh, ACTR2 / RFU, PPP3R1 / Fold change vs veh, PPP3R1 / RFU, PIK3R1 / Fold change vs veh, PIK3R1 / RFU, HNRNPA1 / Fold change vs veh, HNRNPA1 / RFU, RNF170 / Fold change vs veh, RNF170 / RFU, ZNF28 / Fold change vs veh, ZNF28 / RFU, RNGTT / Fold change vs veh, RNGTT / RFU, OGT / Fold change vs veh, OGT / RFU, BRD1 / Fold change vs veh, BRD1 / RFU, MARS / Fold change vs veh, MARS / RFU, ZNF655 / Fold change vs veh, ZNF655 / RFU, FAHD1 / Fold change vs veh, FAHD1 / RFU, BDP1 / Fold change vs veh, BDP1 / RFU, LRRCC1 / Fold change vs veh, LRRCC1 / RFU, ARID1A / Fold change vs veh, ARID1A / RFU, ZNF146 / Fold change vs veh, ZNF146 / RFU, ZNF330 / Fold change vs veh, ZNF330 / RFU, GPN3 / Fold change vs veh, GPN3 / RFU, C9orf123 / Fold change vs veh, C9orf123 / RFU, N4BP2L2 / Fold change vs veh, N4BP2L2 / RFU, ARFIP1 / Fold change vs veh, ARFIP1 / RFU, FAM179B / Fold change vs veh, FAM179B / RFU, BCL10 / Fold change vs veh, BCL10 / RFU, UHRF1BP1L / Fold change vs veh, UHRF1BP1L / RFU, BET1 / Fold change vs veh, BET1 / RFU, CNOT2 / Fold change vs veh, CNOT2 / RFU, ZNF268 / Fold change vs veh, ZNF268 / Fold change vs veh, ZNF507 / RFU, DGCR2 / Fold change vs veh, DGCR2 / RFU, WDSUB1 / Fold change vs veh, WDSUB1 / Fold change vs veh, HSP90B1 /// MIR3652 / RFU, ADSS / Fold change vs veh, ADSS / RFU, GK / Fold change vs veh, GK / RFU, ZNF148 / Fold change vs veh, ZNF148 / RFU, TAF9 / Fold change vs veh, TAF9 / RFU, SLC1A5 / Fold change vs veh, SLC1A5 / RFU, SLMO2 / Fold change vs veh, SLMO2 / RFU, ABCC4 / Fold change vs veh, ABCC4 / RFU, LOC101060439 /// RAP1B / Fold change vs veh, LOC101060439 /// RAP1B / RFU, RFX7 / Fold change vs veh, RFX7 / RFU, GTPBP10 / Fold change vs veh, GTPBP10 / RFU, CNEP1R1 / Fold change vs veh, CNEP1R1 / RFU, BIVM-ERCC5 /// ERCC5 / Fold change vs veh, BIVM-ERCC5 /// ERCC5 / RFU, ILF3 / Fold change vs veh, ILF3 / RFU 11762660_at / Fold change /veh 11762660_at / RFU VCAN (11757783_s_at) / Fold change /veh VCAN (11757783_s_at) / RFU DDX43 (11728927_at) / Fold change /veh DDX43 (11728927_at) / RFU KRT8 (11758188_x_at) / Fold change /veh KRT8 (11758188_x_at) / RFU NKD1 (11759106_at) / Fold change /veh NKD1 (11759106_at) / RFU SRD5A1 (11742802_a_at) / Fold change /veh SRD5A1 (11742802_a_at) / RFU TPSAB1 /// TPSB2 (11721975_s_at) / Fold change /veh TPSAB1 /// TPSB2 (11721975_s_at) / RFU GSTM3 (11746129_a_at) / Fold change /veh GSTM3 (11746129_a_at) / RFU IL23R (11737362_x_at) / Fold change /veh IL23R (11737362_x_at) / RFU TMEM51 (11727254_a_at) / Fold change /veh TMEM51 (11727254_a_at) / RFU PIWIL2 (11732686_x_at) / Fold change /veh PIWIL2 (11732686_x_at) / RFU ORM1 (11744905_x_at) / Fold change /veh ORM1 (11744905_x_at) / RFU CCDC152 (11743942_at) / Fold change /veh CCDC152 (11743942_at) / RFU ECM1 (11717891_a_at) / Fold change /veh ECM1 (11717891_a_at) / RFU IL23R (11748794_a_at) / Fold change /veh IL23R (11748794_a_at) / RFU TNFAIP8L3 (11732012_x_at) / Fold change /veh TNFAIP8L3 (11732012_x_at) / RFU MBOAT4 (11741988_at) / Fold change /veh MBOAT4 (11741988_at) / RFU 11764193_at / Fold change /veh 11764193_at / RFU TMEM53 (11763286_at) / Fold change /veh TMEM53 (11763286_at) / RFU MAGEB2 (11727129_at) / Fold change /veh MAGEB2 (11727129_at) / RFU TMEM200A (11744735_a_at) / Fold change /veh TMEM200A (11744735_a_at) / RFU CCDC152 (11751479_a_at) / Fold change /veh CCDC152 (11751479_a_at) / RFU FAM211A (11726209_a_at) / Fold change /veh FAM211A (11726209_a_at) / RFU RGS16 (11746705_a_at) / Fold change /veh RGS16 (11746705_a_at) / RFU VCAN (11755009_s_at) / Fold change /veh VCAN (11755009_s_at) / RFU RHOB (11743442_s_at) / Fold change /veh RHOB (11743442_s_at) / RFU RGS16 (11720943_a_at) / Fold change /veh RGS16 (11720943_a_at) / RFU RGS16 (11720944_at) / Fold change /veh RGS16 (11720944_at) / RFU, VPS4B / Fold change vs veh, VPS4B / RFU, CREB1 / Fold change vs veh, CREB1 / RFU, DNAJC13 / Fold change vs veh, DNAJC13 / RFU, GNAQ / Fold change vs veh, GNAQ / RFU, CDK5R1 / Fold change vs veh, CDK5R1 / RFU, ZRANB3 / Fold change vs veh, ZRANB3 / RFU, CUL4A / Fold change vs veh, CUL4A / RFU, CCNY / Fold change vs veh, CCNY / RFU, UFL1 / Fold change vs veh, UFL1 / RFU, COG3 / Fold change vs veh, COG3 / RFU, DIAPH2 / Fold change vs veh, DIAPH2 / RFU, SKA2 / Fold change vs veh, SKA2 / RFU, AFF3 / Fold change vs veh, AFF3 / RFU, LMF1 / Fold change vs veh, LMF1 / RFU, IPO11 / Fold change vs veh, IPO11 / RFU, DFFB / Fold change vs veh, DFFB / RFU, FOXP1 / Fold change vs veh, FOXP1 / RFU, CARD8 / Fold change vs veh, CARD8 / RFU, STRN3 / Fold change vs veh, STRN3 / RFU, ADK / Fold change vs veh, ADK / RFU, RASSF2 / Fold change vs veh, RASSF2 / RFU, WIPF1 / Fold change vs veh, WIPF1 / RFU, LARP1B / Fold change vs veh, LARP1B / RFU, RASA1 / Fold change vs veh, RASA1 / RFU, RB1 / Fold change vs veh, RB1 / RFU, PPFIA1 / Fold change vs veh, PPFIA1 / RFU, MAT2A / Fold change vs veh, MAT2A / RFU, CCT5 / Fold change vs veh, CCT5 / RFU, WDR92 / Fold change vs veh, WDR92 / RFU, CUX1 / Fold change vs veh, CUX1 / RFU, TTC7A / Fold change vs veh, TTC7A / RFU, TMEM135 / Fold change vs veh, TMEM135 / RFU, DEPTOR / Fold change vs veh, DEPTOR / RFU, CPM / Fold change vs veh, CPM / RFU, DNAJB6 / Fold change vs veh, DNAJB6 / RFU, CACNA2D3 / Fold change vs veh, CACNA2D3 / RFU, DTX4 / Fold change vs veh, DTX4 / RFU, TFCP2 / Fold change vs veh, TFCP2 / RFU, GMCL1 /// GMCL1P1 / Fold change vs veh, GMCL1 /// GMCL1P1 / RFU, AEBP2 / Fold change vs veh, AEBP2 / RFU, SNHG1 /// SNORD22 /// SNORD25 /// SNORD26 /// SNORD27 /// SNORD28 /// SNORD29 /// SNORD31 / Fold change vs veh, SNHG1 /// SNORD22 /// SNORD25 /// SNORD26 /// SNORD27 /// SNORD28 /// SNORD29 /// SNORD31 / Fold change (Aza/veh), C12orf56 (ProbeSet 11735607_a_at) / Fold change (ACY-1035/veh), C12orf56 (ProbeSet 11735607_a_at) / Fold change (Aza/veh), FGFR1OP (ProbeSet 11751329_s_at) / Fold change (ACY-1035/veh), FGFR1OP (ProbeSet 11751329_s_at) / Fold change (Aza/veh), VPS36 (ProbeSet 11739960_a_at) / Fold change (ACY-1035/veh), VPS36 (ProbeSet 11739960_a_at) / RFU SYPL1 (11715823_x_at) / Fold change /veh SYPL1 (11715823_x_at) / RFU IGFBP7 (11715501_s_at) / Fold change /veh IGFBP7 (11715501_s_at) / RFU REEP3 (11722064_at) / Fold change /veh REEP3 (11722064_at) / RFU IGLL1 (11728026_x_at) / Fold change /veh IGLL1 (11728026_x_at): dose or concentration left out as unconfirmed
Conditions: MV-4-11 cells, 48 hours

## Nc1ccc(-c2cccs2)cc1NC(=O)c1ccc2c(c1)cc(C1CC1)n2CCN1CCOCC1 [ACY-1035]
  RFU VPS37D (11726825_at): 17.46 RFU
